Assay results from PubChem BioAssay AID588587 (The Scripps Research Institute Molecular Screening Center, 2011).
Calls of active or inactive are those of the source.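 Rule for the calls: active = inhibition above 60%; inactive = inhibition at or below 60%.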

System: Fam108b (Abhd17b) [Mus musculus]
Assay: inhibition of membrane-bound mouse Fam108b, SAR follow-up, cell lysate, gel-based competitive ABPP, membrane form, set 2 (AID 588587)
Conditions: Fam108b-overexpressing membrane proteome, FP-Rh, at 20 µM, stronger effect = higher value

Row | SMILES | inhibition
1 | CC(C)(C)c1nc2scc(-c3ccccc3)c2c(=O)o1 | 0% (inactive)
2 | O=c1oc(-c2ccccc2F)nc2scc(-c3cccs3)c12 | 0% (inactive)
